Assays:
[1] = target: benzodiazepine binding site on the GABAA receptor; assay: [3H]flunitrazepam binding, rat cortical membranes; conditions: 5–200 μM DCUKA tested
Experimental: SITES IN CEREBRUM OF F-344 RATS: EFFECTS OF EXERCISE,” Neurobiol. […] Non-specific binding was defined by 10 μM diazepam.

[2] = target: T1, polyamine binding site on the NMDA receptor (Rattus norvegicus, UniProt P35439+Q00960); assay: [3H]ifenprodil binding, rat cortical membranes; conditions: 5–200 μM DCUKA tested
T1 construct: from tissue; host or cells: rat cortical membranes
T1 sequence (Q00960 27-1482, other chains not shown): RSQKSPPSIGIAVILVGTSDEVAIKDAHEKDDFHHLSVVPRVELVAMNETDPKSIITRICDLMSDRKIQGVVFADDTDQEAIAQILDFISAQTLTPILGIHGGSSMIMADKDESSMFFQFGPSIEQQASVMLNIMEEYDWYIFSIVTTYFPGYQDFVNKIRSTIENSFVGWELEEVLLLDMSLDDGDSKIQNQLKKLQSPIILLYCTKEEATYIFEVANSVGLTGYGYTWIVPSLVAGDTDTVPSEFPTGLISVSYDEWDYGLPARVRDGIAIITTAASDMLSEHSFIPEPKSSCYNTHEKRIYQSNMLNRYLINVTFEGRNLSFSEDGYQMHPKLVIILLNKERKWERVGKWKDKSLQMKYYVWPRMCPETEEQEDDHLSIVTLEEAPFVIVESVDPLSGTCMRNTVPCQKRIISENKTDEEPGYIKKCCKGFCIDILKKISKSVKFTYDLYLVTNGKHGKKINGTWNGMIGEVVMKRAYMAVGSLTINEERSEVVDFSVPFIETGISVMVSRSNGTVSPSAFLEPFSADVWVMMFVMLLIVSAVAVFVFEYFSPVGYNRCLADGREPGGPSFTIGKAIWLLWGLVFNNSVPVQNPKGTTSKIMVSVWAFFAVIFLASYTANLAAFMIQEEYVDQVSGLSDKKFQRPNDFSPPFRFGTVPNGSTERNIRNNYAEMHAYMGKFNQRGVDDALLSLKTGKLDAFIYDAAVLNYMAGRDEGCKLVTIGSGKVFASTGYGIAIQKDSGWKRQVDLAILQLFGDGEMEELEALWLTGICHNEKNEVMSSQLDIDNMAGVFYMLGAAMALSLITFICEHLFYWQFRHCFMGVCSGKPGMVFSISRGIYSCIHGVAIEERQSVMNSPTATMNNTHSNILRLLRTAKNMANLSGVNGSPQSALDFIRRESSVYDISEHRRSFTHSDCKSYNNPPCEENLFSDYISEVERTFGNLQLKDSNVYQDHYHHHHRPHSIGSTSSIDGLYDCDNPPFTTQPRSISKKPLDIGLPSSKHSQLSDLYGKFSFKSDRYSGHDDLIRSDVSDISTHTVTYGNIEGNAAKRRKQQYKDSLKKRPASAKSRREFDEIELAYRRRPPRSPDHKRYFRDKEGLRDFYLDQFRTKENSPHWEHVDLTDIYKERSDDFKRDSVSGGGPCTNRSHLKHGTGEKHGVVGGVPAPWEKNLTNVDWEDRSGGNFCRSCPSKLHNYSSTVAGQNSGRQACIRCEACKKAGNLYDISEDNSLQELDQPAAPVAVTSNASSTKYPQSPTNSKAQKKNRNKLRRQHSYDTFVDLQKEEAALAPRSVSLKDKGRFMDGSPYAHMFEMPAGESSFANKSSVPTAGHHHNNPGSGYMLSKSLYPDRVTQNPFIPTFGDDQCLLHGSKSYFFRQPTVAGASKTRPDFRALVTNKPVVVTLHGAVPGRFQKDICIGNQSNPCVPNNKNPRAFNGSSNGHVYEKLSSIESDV

[3] = target: T2, rabbit cardiac L-type VSCC (Oryctolagus cuniculus, UniProt P15381); assay: Currents through VSCCs in oocytes, two electrode voltage clamp; type: cell-based; conditions: 50 μM, Li+ currents, holding −80 mV, test −20 mV
T2 construct: expressed in transfected cells; host or cells: Xenopus laevis oocytes, cRNA injection
T2 sequence (P15381 whole entry): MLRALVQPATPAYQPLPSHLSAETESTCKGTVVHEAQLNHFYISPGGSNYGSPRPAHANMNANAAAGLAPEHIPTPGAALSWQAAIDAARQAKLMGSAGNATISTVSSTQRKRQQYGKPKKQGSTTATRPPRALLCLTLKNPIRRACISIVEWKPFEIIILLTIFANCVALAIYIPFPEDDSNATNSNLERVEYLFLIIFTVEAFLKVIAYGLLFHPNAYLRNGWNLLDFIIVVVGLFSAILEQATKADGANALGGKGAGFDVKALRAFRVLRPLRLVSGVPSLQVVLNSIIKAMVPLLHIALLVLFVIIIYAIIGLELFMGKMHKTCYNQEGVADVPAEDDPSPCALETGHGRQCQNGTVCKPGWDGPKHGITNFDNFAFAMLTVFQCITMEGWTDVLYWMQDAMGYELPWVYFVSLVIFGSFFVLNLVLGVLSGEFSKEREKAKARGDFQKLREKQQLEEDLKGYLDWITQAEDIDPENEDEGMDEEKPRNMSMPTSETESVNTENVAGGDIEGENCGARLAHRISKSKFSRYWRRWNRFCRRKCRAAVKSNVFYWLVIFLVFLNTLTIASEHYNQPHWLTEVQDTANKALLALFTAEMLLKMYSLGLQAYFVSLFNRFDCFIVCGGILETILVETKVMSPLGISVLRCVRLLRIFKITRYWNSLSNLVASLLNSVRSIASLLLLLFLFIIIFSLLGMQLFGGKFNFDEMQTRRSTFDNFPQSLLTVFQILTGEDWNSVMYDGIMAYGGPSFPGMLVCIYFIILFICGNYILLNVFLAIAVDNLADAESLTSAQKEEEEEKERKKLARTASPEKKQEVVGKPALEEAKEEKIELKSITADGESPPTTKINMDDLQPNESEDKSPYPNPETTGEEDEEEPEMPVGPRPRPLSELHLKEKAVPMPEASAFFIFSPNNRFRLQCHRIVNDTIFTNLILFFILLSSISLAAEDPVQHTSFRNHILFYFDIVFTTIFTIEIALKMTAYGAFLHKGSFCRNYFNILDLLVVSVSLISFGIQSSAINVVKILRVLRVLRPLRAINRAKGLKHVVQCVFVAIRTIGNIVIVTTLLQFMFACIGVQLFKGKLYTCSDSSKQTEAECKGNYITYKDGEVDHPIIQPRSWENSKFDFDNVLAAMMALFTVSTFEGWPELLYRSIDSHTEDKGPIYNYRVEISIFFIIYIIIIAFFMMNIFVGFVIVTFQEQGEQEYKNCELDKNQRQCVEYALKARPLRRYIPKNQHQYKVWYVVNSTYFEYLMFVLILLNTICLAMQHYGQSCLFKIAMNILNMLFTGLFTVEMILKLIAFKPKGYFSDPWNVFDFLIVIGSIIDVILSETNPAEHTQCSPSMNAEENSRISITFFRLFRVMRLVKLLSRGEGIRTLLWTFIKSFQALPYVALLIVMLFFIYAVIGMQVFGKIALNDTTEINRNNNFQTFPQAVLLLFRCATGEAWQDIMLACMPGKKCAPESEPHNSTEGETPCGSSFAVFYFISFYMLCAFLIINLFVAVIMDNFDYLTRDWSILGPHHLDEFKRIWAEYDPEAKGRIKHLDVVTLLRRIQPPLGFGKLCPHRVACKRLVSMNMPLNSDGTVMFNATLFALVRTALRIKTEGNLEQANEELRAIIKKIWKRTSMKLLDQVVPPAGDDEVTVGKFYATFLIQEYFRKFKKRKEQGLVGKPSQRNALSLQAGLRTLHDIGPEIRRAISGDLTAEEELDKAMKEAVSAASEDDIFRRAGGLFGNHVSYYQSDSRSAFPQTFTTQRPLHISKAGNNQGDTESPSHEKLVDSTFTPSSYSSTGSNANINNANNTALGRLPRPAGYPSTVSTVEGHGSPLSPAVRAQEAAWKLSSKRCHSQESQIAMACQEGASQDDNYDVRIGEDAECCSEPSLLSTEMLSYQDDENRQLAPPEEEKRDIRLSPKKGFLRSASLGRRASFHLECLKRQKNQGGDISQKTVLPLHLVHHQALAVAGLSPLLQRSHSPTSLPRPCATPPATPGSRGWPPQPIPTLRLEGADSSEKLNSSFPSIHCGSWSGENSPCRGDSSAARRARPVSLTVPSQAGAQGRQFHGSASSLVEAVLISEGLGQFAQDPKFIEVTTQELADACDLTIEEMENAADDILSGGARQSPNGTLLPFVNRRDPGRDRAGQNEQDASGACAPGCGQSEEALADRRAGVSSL
Experimental: In other studies, Stage V and VI oocytes were prepared from Xenopus laevis and maintained using the procedures described in Example 3. Oocytes were injected with cRNA encoding the rabbit cardiac L-type VSCC αic, together with the ancillary subunits α2/β and β2b in a 1:1:1 molar ratio. Macroscopic currents were recorded 4–6 days following injection using the two electrode voltage clamp technique. During recording, oocytes were maintained at room temperature in a perfusion chamber and perfused (1 ml/min) continuously with a buffer containing (in mM) 100 LiCl, 10 HEPES, 10 HEDTA, 14 TEA-Cl, 0.015 CaCl2, (effective free calcium concentration ˜3 nM), pH 7.4 with TEA-OH. The monovalent ion Li^+was used as the charge carrier rather than Ba^2+in these studies because high concentrations of divalent ions promoted precipitation of DCUKA.
DCUKA was made up as a stock solution in DMSO and used in the studies at a concentration of 50 μM, resulting in a final DMSO percentage of 0.25%. This concentration of DMSO enhanced Li^+currents to a small extent, however, this was controlled for by exchanging between solutions that were identical except for presence/absence of the drug itself. […] Li^+currents were recorded using an OC-725B amplifier (Warner Instruments), filtered at 1 kHz (4-pole Bessel filter, Warner Instruments) and sampled at 2 kHz. Voltage pulses of 250 ms duration were given every 15 sec. […]

[4] = system: naive Swiss-Webster mice; assay: Elevated plus-maze; type: in vivo; conditions: 100 or 500 mg/kg
Experimental: The anxiolytic effect of the DCUK-OMe was studied in naive Swiss-Webster mice using an elevated plus-maze apparatus. The plus-shaped maze consists of two arms which are open to the environment (about 30×5 cm) and two arms with side and end walls (about 30×5×15 cm). The arms are connected to a central area (about 5×5 cm) and the plus-maze is elevated from the floor to a height of about 50 cm.
All tests were conducted in a sound-attenuated room under low intensity light (25 Watt). […] A trained observer blind to the treatment conditions scored the number of entries into open arms, the number of entries into closed arms, the number of entries into the central area, the number of rears, and the number of grooming episodes over a 5-minute period. […] The percentage open arm entries was calculated for each animal and used as a measure of the anxiolytic/anxiogenic effects of drug treatment. In addition, the total number of entries made into either open or closed arms was recorded as a measure of drug effects on locomotor activity.
Mice were injected with either vehicle (5% Tween-80, 20% Intralipid) or 100 mg/kg or 500 mg/kg DCUK-OMe suspended in the vehicle about 90 minutes before testing in the plus-maze apparatus. Data were expressed as the percent increase in open arm entries of the drug treated animals compared to vehicle-injected mice. […] Data were analyzed using a one-way ANOVA on ranks. […]

[5] = system: Swiss-Webster mice; assay: Ethanol-induced loss of righting reflex; type: in vivo; conditions: i.p. 30 minutes before ethanol; DCUK-OMe 100 mg/kg, DZP 1 mg/kg
Experimental: Swiss-Webster mice were pretreated (i.p.) with 100 mg/kg DCUK-OMe or 1 mg/kg diazepam (DZP) (in 5% Tween-80, 20% Intralipid) 30 minutes before receiving an i.p. administration of ethanol (either 2.3 or 3.2 g/kg, 20% v/v in saline.). The duration of the ethanol-induced loss of righting reflex (defined as the inability of the mouse to right itself when placed on its back in a trough) was measured. […] Since withdrawal signs are many times evident in individuals whose blood ethanol levels are dropping but are far from zero, the DCUK compounds would have an advantage over DZP in that the CNS depressant effects of ethanol would not be accentuated by DCUK compounds if the DCUK compounds are used in an alcohol-intoxicated individual.

Row | IC50 [1] | IC50 [2] | decrement in the current through VSCCs [3] | SMILES | open arm entries (anxiolytic effect) ([4]; about 90 minutes before testing) | total arm entries (locomotor activity) ([4]; compared to vehicle) | duration of ethanol-induced loss of righting reflex (LORR) [5]
1 | > 200 µM | > 200 µM | less than 20% | O=C(O)c1cc(NC(=O)N(c2ccccc2)c2ccccc2)c2c(Cl)cc(Cl)cc2n1 [DCUKA, (N,N-diphenyl)-4-ureido-5,7-dichloro-2-carboxy-quinoline] | – | – | –
2 | – | – | – | COC(=O)c1cc(NC(=O)N(c2ccccc2)c2ccccc2)c2c(Cl)cc(Cl)cc2n1 [DCUK-OMe, (N,N-diphenyl)-4-ureido-5,7-dichloro-2-carboxy-quinoline methyl ester] | has anxyolitic activity | did not show any increase in total arm entries | no significant enhancement

Reference: patent US6962930B1, “Compounds, compositions and method suitable for amelioration of withdrawal syndromes and withdrawal-induced brain damage” (Lohocla Research Corporation, priority 1997, dated 2005)
